Assay results from patent US4588727A, “Intermediates for pyrrolo[1,2-b][1,2,5]triazepines” (Hoechst-Roussel Pharmaceuticals Inc., priority 1985, dated 1986).
Counter-ions that a name gives are not always drawn.

Columns and labels:
mice [1] = experiment: 2-phenyl-1,4-benzoquinone-induced writhing test in mice (PQW, analgesia); assay type: in vivo; conditions: Mus musculus, sc, read-out: PQW (% decrease)
Text: Compounds I and II of the present invention are useful as analgesic agents due to their ability to alleviate pain in mammals. […] Exptl. Biol. Med., 95, 729 (1957)].

rats = experiment: Geller-conflict paradigm with rats (anxiolytic); assay type: in vivo; conditions: i.p., CRF-conflict responding versus previous day's control trial
Text: Compounds I and II of the present invention are useful as anxiolytic agents. […] See Geller, Irving and Seifter, Psychopharmacologia Vol. 1, 482-492 (1962). Male rats are used as test subjects. They are housed individually and food and water are available ad libitum until they are 300 to 400 grams prior to the start of training. Subsequently they are food deprived until their body weight is reduced to approximately 80% of original and it is maintained at this level by a restricted food diet.
The programming and test equipment consists of solid state devices, shockers and cages within sound-attenuated environmental enclosures. The data is recorded on both solid state print-out counters and cumulative recorders. The cages are equipped with a houselight, a single-lever, cue-lights, a liquid dipper, a speaker and a grid-floor connected to a shocker. Sweetened condensed milk delivered by the liquid-dipper serve as the positive reinforcement for all subjects.
The subjects are trained to lever-press for the milk reward in two distinct response-reward sections. In the anxiety or "conflict" segment, signaled by onset of both tone and cue-lights, a dipper of milk is delivered in response to each lever-press (CRF schedule of reinforcement). However lever presses during this period are also accompanied by a 40 m sec pulse of aversive footshock through the grid-floor. This creates a "conflict between (1) easy access to milk reward and (2) the simultaneous presentation of a painful foot-shock. This "conflict" period is 3 minutes in duration.
During the other segment of this paradigm, the lever presses produces a dipper of milk only at variable intervals of time from 60 to 210 seconds with an average reward of once per 2 minutes (VI-2 min.). No shocks are ever administered during this VI phase of testing which is 15 minutes in duration.
The test procedure consists of four 15 minute (non-shock) VI segments where reinforcement was available on a limited basis. Each VI period is followed by a 3 minute "CRF"-conflict phase when reinforcement is constantly available but always accompanied by an aversive foot-shock. The shock-level is titrated for each subject to reduce the CRF responding to a total of less than 10 lever-presses during the entire test. The rats are tested four days a week. Drugs are administered on the third day and the performance is compared to the previous days control trial. The VI responses are used to evaluate any general debilitating drug effects, while the CRF responses are used to evaluate any "anti-anxiety" effects as indicated by increased responding during the "CRF-conflict" period.
All test compounds are administered by intraperitoneal injection in volumes of 10 cc/kg and the pretreat interval is usually one-half hour.

mice [2] = experiment: supramaximal electroshock assay (SES, anticonvulsant); assay type: in vivo; conditions: Mus musculus, ip, male mice, at peak activity time
Method: Compounds I and II of the present invention are useful as anticonvulsant agents. […] Groups of male mice (18-30 grams) are used. Drugs are prepared using distilled water and if insoluble, a surfactant is added. Control animals receive vehicle. Drugs are routinely administered intraperitoneally. The dosage volume is 10 ml/kg.
The animal's eyes are placed across the output terminals of an A.C. shocker that delivers 206 volts rms for 300 milliseconds. Electrode paste coats the animal's eyes at the point of contact with the terminals.
Protection is expressed as normalized percent inhibition relative to vehicle control. [formula]
A time response is carried out using 6 animals per group. Animals are tested at 30, 60 and 120 minutes postdrug. Additional time periods are tested if indicated by previous tests.
When the peak activity time has been determined, a dose response is initiated, using 10 animals per group at that time period. The ED50 and 95% confidence interval are calculated by computerized probit analysis.

[3] = biological target: benzodiazepine recognition sites; experiment: benzodiazepine (Bz) binding, rat cerebral cortex membrane preparation; conditions: rat cortex membranes, 2 nM radioactive benzodiazepine, pH 6.9, 20 minutes at 0-4° C.
Text: This assay is used to determine potential anxiolytic or anticonvulsant activity via direct interaction with benzodiazepine recognition sites in a membrane preparation obtained from rat brain.
Benzodiazepine is a widely prescribed phychoactive agent. It has various pharmacological properties, including anti-anxiety, anticonvulsant, muscle relaxant and hypnotic effects. The relationships between the pharmacological activities of this compound and the GABA receptor-chlorideionophore complex have been studied in the past. The values of IC50 listed in Table II were determined in the following manner. See Squires and Braestrup, "Benzodiazepine Receptors in Rat Brain", Nature, 266, 732-734 (1977). […]
a. 78.1 g of Tris-HCl q.s. to 1 liter b. 60.6 g of Tris-base q.s to 1 liter c. Adjust pH of Tris HCl to 6.9 at 25° C. by adding Tris base to obtain 0.5M Tris buffer, pH 6.9. d. Make a 1:10 dilution with distilled H2 O to obtain 0.05M Tris buffer, pH 6.9 2. 0.32M sucrose: 21.9 g of sucrose q.s. to 200 ml
3. Radioactive benzodiazepine: this marker compound is made up to a concentration of 80 nM and 50 μl of the solution is added to each tube, which yields a final concentration of 2 nM in the assay.
4. Test Compounds: 1 mM stock solution is made up in a suitable vehicle and serially diluted, such that the final concentration in the assay ranges from 10^-5 to 10^-8 M.
Male Wistar rats are decapitated and the brain rapidly removed. The cerebral cortices are removed, weighed and homogenized with a homogenizer in 20 volumes of ice-cold 0.32M sucrose. This homogenate is contrifuged at 1,000 g for 10 minutes, the pellet is discarded and the supernatant is recentrifuged at 30,000 g for 20 minutes. The resulting membrane pellet is resuspended in 40 volumes of 0.05M Tris buffer, pH 6.9.
1 ml 0.05M Tris buffer, pH 6.9
70 μl 0.5M Tris buffer, pH 6.9
50 μl radioactive benzodiazepine solution
20 μl vehicle or a solution containing an appropriate concentration of test drug 300 μl tissue suspension prepared above
A tube containing the […] listed above is incubated at 0°-4° C. in an ice bath. A 300 μl aliquot of the tissue suspension is added to the tube and the sample is then incubated for 20 minutes at 0°-4° C. and thereafter vacuum-filtered using a suitable filter. The filter is immediately rinsed with three 5 ml washes of ice-cold Tris buffer, pH 6.9. The radioactivity of the filter is counted in 10 ml of a counting cocktail. The value of the radioactive counting obtained for a sample containing a test drug is compared to the counting obtained for the sample not containing the test drug and the ratio between the two computed. The IC50 value for a given test drug is defined as that concentration of the test drug at which said ratio becomes 50% (IC stands for inhibitory concentration).

Compound | inhibition in vivo at 20 mg/kg (mice [1]) | Geller dose/CRF: CRF (rats; dose 40 mg/kg) | ED50 (mice [2]) | IC50 [3] | Geller dose/CRF: CRF (rats; dose 60 mg/kg)
CC(C)(C)OC(=O)NCC(=O)Nn1cccc1C(=O)c1ccccc1Cl [1-[(t-Butoxycarbonylamino)acetamido]-2-(2-chlorobenzoyl)pyrrole] | 49% |  |  |  | 
CN1C(=O)CN=C(c2ccccc2Cl)c2cccn21 [5-(2-Chlorophenyl)-1-methyl-1H-pyrrolo[1,2-b][1,2,5]triazepin-2(3H)-one] | 36% | 1.4 | 17.9 mg/kg | 22.7 nM | 
Br.CN1C(=O)CN=C(c2ccccc2)c2cccn21 [1-Methyl-5-phenyl-1H-pyrrolo[1,2-b][1,2,5]triazepin-2(3H)-one hydrobromide] | 26% | 22.6 |  | 340 nM | 
CN1C(=O)CN=C(c2ccccc2F)c2ccc(Cl)n21.Cl [8-Chloro-5-(2-fluorophenyl)-1-methyl-1H-pyrrolo[1,2-b][1,2,5]triazepin-2(3H)-one hydrochloride] | 19% |  | 36.1 mg/kg | 699 nM | 
Cc1ccc(C(=O)c2ccccc2F)n1NC(=O)CNCC(=O)Nn1c(C)ccc1C(=O)c1ccccc1F [Di-[(2-(2-fluorobenzoyl)-5-methyl-1H-pyrrol-1-yl)-2-acetamido]amine hydrochloride] | 68% |  |  |  | 
Br.CN(C(=O)CN)n1cccc1C(=O)c1ccccc1F [1-(N-Methyl-aminoacetamido)-2-(2-fluorobenzoyl)pyrrole hydrobromide] |  | 11.2 | 8.2 mg/kg | < 10000 nM | 
CN1C(=O)CN=C(c2ccccc2F)c2cccn21.Cl [5-(2-Fluorophenyl)-1-methyl-1H-pyrrolo[1,2-b][1,2,5]triazepin-2(3H)-one hydrochloride] | 27% |  | 43.6 mg/kg | 62.1 nM | 
O=C(CNC(=O)OCc1ccccc1)Nn1cccc1C(=O)c1ccccc1 [1-[(Carbobenzyloxyamino)acetamido]-2-benzoylpyrrole] | 50% |  |  |  | 
O=C1CN=C(c2ccccc2)c2cccn2N1 [5-Phenyl-1H-pyrrolo[1,2-b][1,2,5]triazepin-2(3H)-one] | 31% |  |  | 6730 nM | 
CN(C(=O)CN)n1cccc1C(=O)c1ccccc1Cl [1-(N-Methyl-aminoacetamido)-2-(2-chlorobenzoyl)pyrrole hydrobromide] | 42% |  |  |  | 
CC(C)(C)OC(=O)NCC(=O)Nn1cccc1C(=O)c1ccccc1F [1-[(t-Butoxycarbonylamino)acetamido]-2-(2-fluorobenzoyl)pyrrole] | 21% |  |  |  | 
CN(C)CCNn1cccc1C(=O)c1ccccc1Cl [[2-(2-Chlorobenzoyl)-1H-pyrrol-1-yl]-2-(dimethylamino)ethylamine hydrobromide] | 72% |  |  |  | 
CN(C(=O)CNC(=O)OC(C)(C)C)n1cccc1C(=O)c1ccccc1Cl [1-[N-Methyl-(t-butoxycarbonylamino)acetamido]-2-(2-chlorobenzoyl)pyrrole] | 47% |  |  |  | 
CCOC(=O)N(CCN(C)C)n1cccc1C(=O)c1ccccc1Cl [[2-(2-Chlorobenzoyl)-1H-pyrrol-1-yl]-2-[(dimethylamino)ethyl]carbamic acid, ethyl ester hydrobromide] | 41% |  |  |  | 
NCC(=O)Nn1cccc1C(=O)c1ccccc1 [1-Aminoacetamido-2-benzoylpyrrole hydrochloride] | 23% |  |  |  | 
O=C1CN=C(c2ccccc2Cl)c2cccn2N1 [5-(2-Chlorophenyl)-1H-pyrrolo[1,2-b][1,2,5]triazepin-2(3H)-one] |  |  |  | 204 nM | 15
O=C1CN=C(c2ccccc2F)c2cccn2N1 [5-(2-Fluorophenyl)-1H-pyrrolo[1,2-b][1,2,5]triazepin-2(3H)-one] |  | 2.4 |  | 586 nM | 
